Measured values published in patent publication US20080176857A1, “4-Piperazinnylthieno[2,3-d]Pyrimidine Compounds as Platelet Aggregation Inhibitors” (priority 2005, published 2008).

Target: P2Y12 receptor (Homo sapiens, UniProt Q9H244)
Assay: [33P]2MeS-ADP binding to washed human platelet membranes (Assay 1)
Set-up: the P2Y12 receptor, which is found on the surface of platelets; tissue Interstate Blood bank, Memphis, Tenn; host or cells: washed human platelets from platelet rich plasma
Details: for inhibition at 10 µM: at highest concentration tested
Method: 1. Inhibition of [^33P]2MeS-ADP Binding to Washed Human Platelet Membranes. The ability of a test compound to bind to the P2Y12 receptor was evaluated in a platelet membrane binding assay. In this competitive binding assay, the test compound competed against a radiolabelled agonist for binding to the P2Y12 receptor, which is found on the surface of platelets. Inhibition of binding of the labeled material was measured and correlated to the amount and potency of the test compound. Data from this assay are presented in Table F. Platelet rich plasma (“PRP”) was obtained from the Interstate Blood bank, Memphis, Tenn. Platelet rich plasma was prepared from blood units collected in ACD ((prepared by (1) combining: 2.5 g sodium citrate (Sigma S-4641); 1.5 g citric acid (Sigma C-0706); and, 2.0 g dextrose (Sigma G-7528); (2) bringing pH to 4.5; and (3) adding water to bring volume to 100 mL) and using the light spin protocol; this protocol involves centrifugation at room temperature for approximately 20 minutes at speeds up to 160×g. Platelet rich plasma is supplied in units of approximately 200 ml. Each unit is distributed into four 50 mL polypropylene conical tubes for centrifugation. Blood from each donor is maintained separately.
The 50 mL tubes were centrifuged for 15 minutes at 1100 rpm in Sorvall RT6000D (with H1000B rotor). Internal centrifuge temperature was maintained at approximately room temperature (22-24° C.). This spin pelleted cellular components remaining from the PRP preparation.
The supernatant was decanted into fresh 50 mL tubes. To avoid carry over of cellular components following the room temperature centrifugation, approximately 5 mL of PRP was left in the tube and discarded. The tubes were capped and inverted 2-3 times and allowed to stand at room temperature for at least 15 minutes following inversion.
Optionally, a Coulter Counter may be used to count platelets from the resting samples during the resting phase. Normal human platelet counts are expected to range from 200,000 to 400,000 per μL of PRP supernatant.
The 50 mL tubes containing PRP supernatant were centrifuged for 15 minutes at 2300-2400 rpm to loosely pellet the platelets. The supernatant from this spin was decanted immediately into a clean cell culture bottle (Corning bottle) and saved in case further centrifugation was needed. The pellet of each tube was resuspended in 2-4 mL of Wash buffer (pH 6.5) (1 L prepared new daily—134 mM NaCl (Sigma S-5150); 3 mM KCl (Sigma P-9333); 1 mM CaCl2 (JT Baker 1311-01); 2 mM MgCl2 (Sigma M-2670); 5 mM glucose (EM 4074-2); 0.3 mM NaH2PO4 (Sigma S-9638)/12 mM NaHCO3 (JT Baker 3506-01); 5 mM HEPES pH 7.4 (Gibco 12379-012); 0.35% BSA (Sigma A-7906); 330 mg Heparin (bovine lung, Sigma H-4898); and 30 mL of ACD) by repeated gentle aspiration using disposable polypropylene sample pipettes.
Wash buffer (pH 6.5) was added to each tube to bring the volume to approximately 40 mL. Each tube was incubated for at least 15 minutes at 37° C.
The tubes were then centrifuged again for 15 minutes at 2300-2400 rpm to loosely pellet the platelets. The supernatant was decanted and discarded. The pellet was resuspended in 2-4 mL of Assay buffer (pH 7.4) (1 L volume—134 mM NaCl; 3 mM KCl; 1 mM CaCl2; 2 mM MgCl2; 5 mM glucose; 0.3 mM NaH2PO4/12 mM NaHCO3; 5 mM HEPES pH 7.4; and 0.35% BSA) by repeated aspiration using disposable polypropylene sample pipettes.
The pooled platelet preparation was counted using a Coulter Counter. […]

[1] = washed human platelet membranes, competition with [33P]2MeS-ADP

P2Y12 receptor, sequence (Q9H244 whole entry): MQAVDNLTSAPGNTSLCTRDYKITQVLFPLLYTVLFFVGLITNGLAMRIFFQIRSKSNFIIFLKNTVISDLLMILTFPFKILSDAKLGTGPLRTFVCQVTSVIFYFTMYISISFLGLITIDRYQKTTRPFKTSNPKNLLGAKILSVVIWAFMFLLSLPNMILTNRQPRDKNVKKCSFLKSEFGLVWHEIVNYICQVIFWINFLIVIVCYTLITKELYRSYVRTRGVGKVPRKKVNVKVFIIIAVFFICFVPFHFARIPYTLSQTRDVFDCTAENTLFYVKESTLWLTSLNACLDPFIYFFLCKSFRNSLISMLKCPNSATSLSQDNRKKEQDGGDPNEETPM

Row | inhibition at 10 µM [%] | IC50 [1] [µM] | Ki [1] [µM] | SMILES
1 | 39.5 | > 10 | – | CCc1cc2c(N3CCN(C(=O)Cc4ccccc4)CC3)nc(SCc3ccccc3)nc2s1 [Example 85, 2-(benzylthio)-6-ethyl-4-[4-(phenylacetyl)piperazin-1-yl]thieno[2,3-d]pyrimidine]
2 | 52.9 | 7.93 | 7.51 | CCc1cc2c(N3CCN(C(=O)Cc4ccccc4)CC3)nc(SCc3ccco3)nc2s1 [Example 86, 6-ethyl-2-[(2-furylmethyl)thio]-4-[4-(phenylacetyl)piperazin-1-yl]thieno[2,3-d]pyrimidine]
